The target of experiment [1] is Glyceraldehyde-3-phosphate dehydrogenase, glycosomal (Trypanosoma cruzi, UniProt P22513). As to the kind of experiment: (§1) Inhibition of Trypanosoma cruzi recombinant glycosomal GAPDH expressed in Escherichia coli by spectrophotometry.
Experiment [2] relates to Trypanosoma cruzi. Description: Antitrypanosomal activity against Trypanosoma cruzi amastigote forms. Type of experiment: functional, organism-based.
Experiment [3] relates to Leishmania amazonensis. Description: Antileishmanial activity against Leishmania amazonensis amastigote forms at 841 uM. Type of experiment: functional.
The test system of experiment [4] is Trypanosoma cruzi. As to the kind of experiment: Antitrypanosomal activity against Trypanosoma cruzi amastigote forms at 841 uM. Type of experiment: functional.
For experiment [5], the system named is Ehrlich. As to the kind of experiment: Cytotoxicity against mouse Ehrlich carcinoma cells. Format: functional, cell-based.
Experiment [6] deals with Glyceraldehyde-3-phosphate dehydrogenase, glycosomal (Trypanosoma cruzi) (UniProt P22513). The experiment is described as §1. Particulars: concentration not given here.
Chain of Glyceraldehyde-3-phosphate dehydrogenase, glycosomal (Trypanosoma cruzi) (P22513 whole entry): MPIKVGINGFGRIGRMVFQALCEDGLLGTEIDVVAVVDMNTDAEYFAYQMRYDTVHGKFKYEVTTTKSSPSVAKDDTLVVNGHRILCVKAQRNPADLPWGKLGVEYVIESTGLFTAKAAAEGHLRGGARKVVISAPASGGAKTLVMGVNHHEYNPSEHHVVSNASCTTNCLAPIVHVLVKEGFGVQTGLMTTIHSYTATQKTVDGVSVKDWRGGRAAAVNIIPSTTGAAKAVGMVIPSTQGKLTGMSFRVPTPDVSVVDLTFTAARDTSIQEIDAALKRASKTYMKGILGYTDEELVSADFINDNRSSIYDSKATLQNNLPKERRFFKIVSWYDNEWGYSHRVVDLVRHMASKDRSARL

Chain of Glyceraldehyde-3-phosphate dehydrogenase, glycosomal (P22513 whole entry): as above

Regarding `CCCCCC/C=C/CCCCCCCc1cccc(O)c1C(=O)O`, the IC50 (in general, the concentration needed to halve the response being measured) in experiment [1] came out at 161 µM.
Same read-out and setting: with `COc1cccc(C(=O)N[C@@H]2[C@H](O)[C@@H](COP(=O)(O)O)O[C@H]2n2cnc3c(NCc4cccc5ccccc45)ncnc32)c1` the figure was 5 µM; with `COc1cccc(C(=O)N[C@@H]2[C@H](O)[C@@H](CO)O[C@H]2n2cnc3c(NCc4cccc5ccccc45)ncnc32)c1`, 12 µM.
As to `C=CC/C=C/C/C=C/CCCCCCCc1cccc(O)c1C(=O)O`, the IC50 in experiment [1] worked out at 38 µM.
`CCC/C=C/C/C=C/CCCCCCCc1cccc(O)c1C(=O)O`: the IC50 in experiment [1] is 69 µM.
Still for that read-out and setting: with `COc1cc2oc(-c3cc(OC)c(OC)c(OC)c3)cc(=O)c2cc1OC` the figure was 81 µM; with `CC(=O)Oc1ccc(-c2cc3cc(OC(C)=O)c(OC(C)=O)cc3oc2=O)cc1OC(C)=O`, 17.8 µM; with `COc1ccc(-c2coc3cc(O)c(OC)cc3c2=O)cc1` [CASTANIN], 84 µM.
In the case of `C=CC(C)(C)c1cc2cc3c(cc2oc1=O)O[C@H](C(C)(C)O)C3` [CHALEPIN], the IC50 in experiment [1] worked out at 64 µM.
Same read-out and setting: the figure for `O=c1ccc2ccccc2o1` [COUMARIN] is 692 µM; for `O=c1c(O[C@@H]2OC[C@H](O)[C@H](O)[C@H]2O)c(-c2ccc(O)c(O)c2)oc2cc(O)cc(O)c12` [GUAJAVERIN] it is 140 µM.
The same measure, in the same setting: with `O=c1c2cc(O)c(O)cc2oc2cc(O)c([C@@H]3O[C@H](CO)[C@@H](O)[C@H](O)[C@H]3O)c(O)c12` [MANGIFERIN] the figure was 149 µM.
Turning to `O=c1c(O)c(-c2ccc(O)c(O)c2)oc2cc(O)cc(O)c12` [QUERCETIN], the results for the IC50 in experiment [2] and in experiment [1] were 771 µM and 142 µM, respectively.
Take `O=C(/C=C/c1ccc(O)cc1)OC[C@H]1O[C@@H](Oc2c(-c3ccc(O)cc3)oc3cc(O)cc(O)c3c2=O)[C@H](O)[C@@H](O)[C@@H]1O` [TILIROSIDE]: the Activity in experiment [3] came out at 67.8%; in experiment [4], 45%. Besides, the IC50 in experiment [1] stood at 46 µM; in experiment [5], 69.5 µM.
As to `O=c1ccc2ccc(O)cc2o1` [UMBELLIFERONE], in experiment [1], the IC50 came to 617 µM.
`C[C@H]1[C@H](C)CC[C@]2(C(=O)O)CC[C@]3(C)C(=CC[C@@H]4[C@@]5(C)CC[C@H](O)C(C)(C)[C@@H]5CC[C@]43C)[C@H]12` [URSOLIC ACID]: the IC50 in experiment [2] is 4 µM. The inhibition (as a rule, the share of the control response that was lost under treatment) in experiment [6] is 25%.
